A short description of data set [1]: Molar enthalpy of transition or fusion. The settings on record: Crystal; DSC.
For data set [2] the following is noted: Crystal; DTA.

± gives the expanded uncertainty stated by the source.

`O=P(Oc1ccccc1)(Oc1ccccc1)N1CCN(P(=O)(Oc2ccccc2)Oc2ccccc2)CC1` [tetraphenyl piperazine-1,4-diylbis(phosphonate)]: the “Molar enthalpy of transition or fusion” value in data set [1] stood at 14.3 ± 0.359 kcal/mol. Also, the Normal melting temperature in data set [2] is 184.67 ± 0.53 °C.

The values above are taken from the NIST ThermoML archive (doi:10.1016/j.jct.2014.06.021).
